Measurements: ChEMBL document CHEMBL3044741, “Synthesis of novel biologically active methylene derivatives of sydnones” (Med Chem Res, 2013)
Values after ≈ are worked out from the molar mass of the structure shown.

What was measured:
Aspergillus niger [1] = test: Antifungal activity against Aspergillus niger MTCC 282; type: functional
Aspergillus clavatus [2] = test: Antifungal activity against Aspergillus clavatus MTCC 1323; type: functional
Candida albicans [3] = test: Antifungal activity against Candida albicans MTCC 227; type: functional
Aspergillus niger [4] = test: Antifungal activity against Aspergillus niger MTCC 282 at 250 ug/ml after 74 hrs by Kirby-Bauer method; type: functional; settings: MTCC 282, 74 h, read-out: IZ
Aspergillus clavatus [5] = test: Antifungal activity against Aspergillus clavatus MTCC 1323 at 250 ug/ml after 74 hrs by Kirby-Bauer method; type: functional; settings: MTCC 1323, 74 h, read-out: IZ
Candida albicans [6] = test: Antifungal activity against Candida albicans MTCC 227 at 250 ug/ml after 74 hrs by Kirby-Bauer method; type: functional; settings: MTCC 227, 74 h, read-out: IZ
[7] = Selectivity index, ratio of CC50 for human MT4 cells to IC50 for HIV2 ROD; type: functional
[8] = Cytotoxicity against human MT4 cells by MTT assay; type: cell-based
[9] = Selectivity index, ratio of CC50 for human MT4 cells to IC50 for HIV1 3B; type: functional
[10] = tested on: Human immunodeficiency virus 2; test: Antiviral activity against HIV2 ROD infected in MT4 cells assessed as inhibition of virus-induced cytopathogenicity by MTT assay; type: functional, organism-based; settings: Human immunodeficiency virus 2, ISOLATE ROD
[11] = tested on: Human immunodeficiency virus 1; test: Antiviral activity against HIV1 3B infected in MT4 cells assessed as inhibition of virus-induced cytopathogenicity by MTT assay; type: functional, organism-based; settings: Human immunodeficiency virus 1, 3B
Human alphaherpesvirus 3 [12] = test: Antiviral activity against thymidine kinase-deficient Varicella-zoster virus infected in HEL cells assessed as reduction in plaque formation; type: functional, organism-based; settings: Human alphaherpesvirus 3, HEL
Human alphaherpesvirus 3 [13] = test: Antiviral activity against Varicella-zoster virus Oka expressing thymidine kinase infected in HEL cells assessed as reduction in plaque formation; type: functional, organism-based; settings: Human alphaherpesvirus 3, strain Oka vaccine
[14] = Cytotoxicity against human HEL cells; type: cell-based
Cytomegalovirus [15] = test: Antiviral activity against Cytomegalovirus Davis in HEL cells assessed as reduction in plaque formation; type: functional, organism-based; settings: Human betaherpesvirus 5, Davis
[16] = Cytotoxicity against human HEL cells assessed as alteration in cell morphology; type: cell-based
Cytomegalovirus [17] = test: Antiviral activity against Cytomegalovirus AD-169 infected in HEL cells assessed as reduction in plaque formation; type: functional, organism-based; settings: Human betaherpesvirus 5, AD-169, HEL
Pseudomonas aeruginosa [18] = test: Antibacterial activity against Pseudomonas aeruginosa MTCC 424 after 24 hrs by broth dilution method; type: functional; settings: MTCC 424, 24 h
Streptococcus pyogenes [19] = test: Antibacterial activity against Streptococcus pyogenes MTCC 442 after 24 hrs by broth dilution method; type: functional; settings: MTCC 442, 24 h
Escherichia coli [20] = test: Antibacterial activity against Escherichia coli MTCC 443 after 24 hrs by broth dilution method; type: functional; settings: MTCC 443, 24 h
Staphylococcus aureus [21] = test: Antibacterial activity against Staphylococcus aureus MTCC 96 after 24 hrs by broth dilution method; type: functional; settings: MTCC 96, 24 h
Pseudomonas aeruginosa [22] = test: Antibacterial activity against Pseudomonas aeruginosa MTCC 424 at 250 ug/ml after 24 hrs by Kirby-Bauer method; type: functional; settings: MTCC 424, 24 h, read-out: IZ
Escherichia coli [23] = test: Antibacterial activity against Escherichia coli MTCC 443 at 250 ug/ml after 24 hrs by Kirby-Bauer method; type: functional; settings: MTCC 443, 24 h, read-out: IZ
Streptococcus pyogenes [24] = test: Antibacterial activity against Streptococcus pyogenes MTCC 442 at 250 ug/ml after 24 hrs by Kirby-Bauer method; type: functional; settings: MTCC 442, 24 h, read-out: IZ
Staphylococcus aureus [25] = test: Antibacterial activity against Staphylococcus aureus MTCC 96 at 250 ug/ml after 24 hrs by Kirby-Bauer method; type: functional; settings: MTCC 96, 24 h, read-out: IZ

COC1=CC(=O)C[C@@H](C)[C@]12Oc1c(Cl)c(OC)cc(OC)c1C2=O [GRISEOFULVIN]
MIC (Aspergillus niger [1]): 100 µg/mL (≈ 283 µM)
MIC (Aspergillus clavatus [2]): 100 µg/mL (≈ 283 µM)
MIC (Candida albicans [3]): 100 µg/mL (≈ 283 µM)
zone of inhibition at 250 µg/mL (Aspergillus niger [4]): 28 mm
zone of inhibition at 250 µg/mL (Aspergillus clavatus [5]): 24 mm
zone of inhibition at 250 µg/mL (Candida albicans [6]): 24 mm

Cc1cn([C@H]2C[C@H](N=[N+]=[N-])[C@@H](CO)O2)c(=O)[nH]c1=O [ZIDOVUDINE]
Ratio CC50/IC50 [7]: >26731
CC50 [8]: > 25 µg/mL
Ratio CC50/IC50 [9]: >11587
IC50 [10]: 0.00094 µg/mL (≈ 0.00352 µM)
IC50 [11]: 0.0022 µg/mL (≈ 0.00823 µM)

Cc1ccnc2c1NC(=O)c1cccnc1N2C1CC1 [NEVIRAPINE]
Ratio CC50/IC50 [7]: <1
CC50 [8]: > 4 µg/mL
Ratio CC50/IC50 [9]: >80
IC50 [10]: > 4 µg/mL
IC50 [11]: 0.05 µg/mL (≈ 0.188 µM)

[O-]c1on[n+](-c2ccc(Cc3ccc(-[n+]4noc([O-])c4CN4CCN(c5ccccc5)CC4)cc3)cc2)c1CN1CCN(c2ccccc2)CC1
Ratio CC50/IC50 [7]: <1
CC50 [8]: 10.3 µg/mL (≈ 15 µM)
Ratio CC50/IC50 [9]: <1
IC50 [10]: > 10.3 µg/mL
EC50 (Human alphaherpesvirus 3 [12]): > 4 µg/mL
IC50 [11]: > 10.3 µg/mL
EC50 (Human alphaherpesvirus 3 [13]): > 4 µg/mL
CC50 [14]: 12 µg/mL (≈ 17.5 µM)
EC50 (Cytomegalovirus [15]): > 20 µg/mL
MCC [16]: ≥ 20 µg/mL
EC50 (Cytomegalovirus [17]): > 4 µg/mL
MIC (Aspergillus niger [1]): 1000 µg/mL (≈ 1460 µM)
MIC (Aspergillus clavatus [2]): 250 µg/mL (≈ 365 µM)
MIC (Candida albicans [3]): 250 µg/mL (≈ 365 µM)
zone of inhibition at 250 µg/mL (Aspergillus niger [4]): 20 mm
zone of inhibition at 250 µg/mL (Aspergillus clavatus [5]): 25 mm
zone of inhibition at 250 µg/mL (Candida albicans [6]): 21 mm
MIC (Pseudomonas aeruginosa [18]): 100 µg/mL (≈ 146 µM)
MIC (Streptococcus pyogenes [19]): 200 µg/mL (≈ 292 µM)
MIC (Escherichia coli [20]): 125 µg/mL (≈ 183 µM)
MIC (Staphylococcus aureus [21]): 500 µg/mL (≈ 730 µM)
zone of inhibition at 250 µg/mL (Pseudomonas aeruginosa [22]): 22 mm
zone of inhibition at 250 µg/mL (Escherichia coli [23]): 20 mm
zone of inhibition at 250 µg/mL (Streptococcus pyogenes [24]): 18 mm
zone of inhibition at 250 µg/mL (Staphylococcus aureus [25]): 17 mm

CC1(C)S[C@@H]2[C@H](NC(=O)[C@H](N)c3ccccc3)C(=O)N2[C@H]1C(=O)O [AMPICILLIN]
MIC (Pseudomonas aeruginosa [18]): 100 µg/mL (≈ 286 µM)
MIC (Streptococcus pyogenes [19]): 100 µg/mL (≈ 286 µM)
MIC (Escherichia coli [20]): 100 µg/mL (≈ 286 µM)
MIC (Staphylococcus aureus [21]): 250 µg/mL (≈ 715 µM)
zone of inhibition at 250 µg/mL (Pseudomonas aeruginosa [22]): 20 mm
zone of inhibition at 250 µg/mL (Escherichia coli [23]): 20 mm
zone of inhibition at 250 µg/mL (Streptococcus pyogenes [24]): 19 mm
zone of inhibition at 250 µg/mL (Staphylococcus aureus [25]): 18 mm

[O-]c1on[n+](-c2ccc(Cc3ccc(-[n+]4noc([O-])c4CN4CCN(c5cccc(Cl)c5)CC4)cc3)cc2)c1CN1CCN(c2cccc(Cl)c2)CC1
Ratio CC50/IC50 [7]: <1
CC50 [8]: 13.2 µg/mL (≈ 17.5 µM)
Ratio CC50/IC50 [9]: <1
IC50 [10]: > 13.2 µg/mL
EC50 (Human alphaherpesvirus 3 [12]): > 4 µg/mL
IC50 [11]: > 13.2 µg/mL
EC50 (Human alphaherpesvirus 3 [13]): > 4 µg/mL
CC50 [14]: > 100 µg/mL
EC50 (Cytomegalovirus [15]): 20 µg/mL (≈ 26.5 µM)
MCC [16]: ≥ 20 µg/mL
EC50 (Cytomegalovirus [17]): > 4 µg/mL
MIC (Aspergillus niger [1]): 1000 µg/mL (≈ 1330 µM)
MIC (Aspergillus clavatus [2]): 1000 µg/mL (≈ 1330 µM)
MIC (Candida albicans [3]): 1000 µg/mL (≈ 1330 µM)
zone of inhibition at 250 µg/mL (Aspergillus niger [4]): 20 mm
zone of inhibition at 250 µg/mL (Aspergillus clavatus [5]): 22 mm
zone of inhibition at 250 µg/mL (Candida albicans [6]): 21 mm
MIC (Pseudomonas aeruginosa [18]): 500 µg/mL (≈ 663 µM)
MIC (Streptococcus pyogenes [19]): 200 µg/mL (≈ 265 µM)
MIC (Escherichia coli [20]): 250 µg/mL (≈ 332 µM)
MIC (Staphylococcus aureus [21]): 250 µg/mL (≈ 332 µM)
zone of inhibition at 250 µg/mL (Pseudomonas aeruginosa [22]): 17 mm
zone of inhibition at 250 µg/mL (Escherichia coli [23]): 18 mm
zone of inhibition at 250 µg/mL (Streptococcus pyogenes [24]): 19 mm
zone of inhibition at 250 µg/mL (Staphylococcus aureus [25]): 19 mm

O=c1[nH]cnc2c1ncn2[C@H]1CC[C@@H](CO)O1 [DIDANOSINE]
Ratio CC50/IC50 [7]: >13
CC50 [8]: > 50 µg/mL
Ratio CC50/IC50 [9]: >24
IC50 [10]: 3.78 µg/mL (≈ 16 µM)
IC50 [11]: 2.09 µg/mL (≈ 8.85 µM)

Cc1ccc(-[n+]2noc([O-])c2CN2CCN(c3ccccc3)CC2)cc1
Ratio CC50/IC50 [7]: <1
CC50 [8]: 13.2 µg/mL (≈ 37.8 µM)
Ratio CC50/IC50 [9]: <1
IC50 [10]: > 13.2 µg/mL
EC50 (Human alphaherpesvirus 3 [12]): > 4 µg/mL
IC50 [11]: > 13.2 µg/mL
EC50 (Human alphaherpesvirus 3 [13]): > 4 µg/mL
CC50 [14]: 20 µg/mL (≈ 57.1 µM)
EC50 (Cytomegalovirus [15]): > 20 µg/mL
MCC [16]: 100 µg/mL
EC50 (Cytomegalovirus [17]): > 20 µg/mL
MIC (Aspergillus niger [1]): 200 µg/mL (≈ 571 µM)
MIC (Aspergillus clavatus [2]): 500 µg/mL (≈ 1430 µM)
MIC (Candida albicans [3]): 500 µg/mL (≈ 1430 µM)
zone of inhibition at 250 µg/mL (Aspergillus niger [4]): 24 mm
zone of inhibition at 250 µg/mL (Aspergillus clavatus [5]): 21 mm
zone of inhibition at 250 µg/mL (Candida albicans [6]): 21 mm
MIC (Pseudomonas aeruginosa [18]): 100 µg/mL (≈ 285 µM)
MIC (Streptococcus pyogenes [19]): 250 µg/mL (≈ 713 µM)
MIC (Escherichia coli [20]): 500 µg/mL (≈ 1430 µM)
MIC (Staphylococcus aureus [21]): 250 µg/mL (≈ 713 µM)
zone of inhibition at 250 µg/mL (Pseudomonas aeruginosa [22]): 20 mm
zone of inhibition at 250 µg/mL (Escherichia coli [23]): 16 mm
zone of inhibition at 250 µg/mL (Streptococcus pyogenes [24]): 18 mm
zone of inhibition at 250 µg/mL (Staphylococcus aureus [25]): 18 mm

CCn1cc(C(=O)O)c(=O)c2cc(F)c(N3CCNCC3)cc21 [NORFLOXACIN]
MIC (Pseudomonas aeruginosa [18]): 10 µg/mL (≈ 31.3 µM)
MIC (Streptococcus pyogenes [19]): 10 µg/mL (≈ 31.3 µM)
MIC (Escherichia coli [20]): 10 µg/mL (≈ 31.3 µM)
MIC (Staphylococcus aureus [21]): 10 µg/mL (≈ 31.3 µM)
zone of inhibition at 250 µg/mL (Pseudomonas aeruginosa [22]): 23 mm
zone of inhibition at 250 µg/mL (Escherichia coli [23]): 29 mm
zone of inhibition at 250 µg/mL (Streptococcus pyogenes [24]): 21 mm
zone of inhibition at 250 µg/mL (Staphylococcus aureus [25]): 28 mm
